Patent US20230374035A1, “RAS INHIBITORS” (Revolution Medicines, Inc., priority 2019, published 2023)

What was measured:
NCI-H358 (K-Ras G12C) = experiment: CellTiter-Glo Cell Viability Assay; format: cell-based; conditions: Homo sapiens, NCI-H358, 120 h; H358, 5-day treatment
Experimental: Determination of Cell Viability in RAS Mutant Cancer Cell Lines
Protocol: CellTiter-Glo® Cell Viability Assay
Note—The following protocol describes a procedure for monitoring cell viability of K-Ras mutant cancer cell lines in response to a compound of the invention. Other RAS isoforms may be employed, though the number of cells to be seeded will vary based on cell line used.
Test compounds (132.5 nl) were directly dispensed into the assay plates containing cells. […] On day 5, assay plates and their contents were equilibrated to room temperature for approximately 30 minutes. […] Luminescence was measured using the PerkinElmer Enspire. Data were normalized by the following: (Sample signal/Avg. DMSO)*100. The data were fit using a four-parameter logistic fit.

NRAS Q61K = NRAS Q61K (Homo sapiens, UniProt P01111+P62937, Q61K); experiment: Disruption of BRAF RBD interaction with Ras (FRET / MOA assay); format: biochemical; conditions: read-out: NRAS Q61K FRET data IC50
Experimental: Compound is present in plate wells as a 10-point 3-fold dilution series starting at a final concentration of 30 μM. […] Compounds that facilitate disruption of a Ras:RAF complex are identified as those eliciting a decrease in the TR-FRET ratio relative to DMSO control wells.
Note—The following protocol describes a procedure for monitoring disruption of K-Ras G12C (GMP-PNP) binding to BRAF^RBD by a compound of the invention. This protocol may also be executed substituting other Ras proteins or nucleotides.
The purpose of this biochemical assay was to measure the ability of test compounds to facilitate ternary complex formation between a nucleotide-loaded K-Ras isoform and Cyclophilin A; the resulting ternary complex disrupts binding to a BRAF^RBD construct, inhibiting K-Ras signaling through a RAF effector. Data is reported as IC50 values.
Compound was present in plate wells as a 10-point 3-fold dilution series starting at a final concentration of 30 μM. […] Compounds that facilitate disruption of a K-Ras:RAF complex were identified as those eliciting a decrease in the TR-FRET ratio relative to DMSO control wells.

Sequence of NRAS Q61K (P01111 whole entry Q61K): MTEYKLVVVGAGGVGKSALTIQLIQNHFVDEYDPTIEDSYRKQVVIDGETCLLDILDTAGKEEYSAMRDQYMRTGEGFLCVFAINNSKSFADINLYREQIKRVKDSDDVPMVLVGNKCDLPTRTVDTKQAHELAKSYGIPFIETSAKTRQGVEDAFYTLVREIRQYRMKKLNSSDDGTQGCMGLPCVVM
Sequence of NRAS Q61K (P62937 whole entry): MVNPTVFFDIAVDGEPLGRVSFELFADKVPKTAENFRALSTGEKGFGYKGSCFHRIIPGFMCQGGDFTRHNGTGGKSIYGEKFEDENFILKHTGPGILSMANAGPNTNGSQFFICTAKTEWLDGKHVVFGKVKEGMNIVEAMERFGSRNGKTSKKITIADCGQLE

| SMILES | IC50 (NCI-H358 (K-Ras G12C)) [nM] | IC50 (NRAS Q61K) [nM] |
| --- | --- | --- |
| CCn1c(-c2cccnc2[C@H](C)OC)c2c3cc(ccc31)-c1csc(n1)C[C@H](NC(=O)[C@H](C(C)C)N(C)C(=O)N1CC(C3COC3)C1)C(=O)N1CCC[C@H](N1)C(=O)OCC(C)(C)C2 (atropisomer, axis not shown) [Compound A298] | < 10 | – |
| CCn1c(-c2cccnc2[C@H](C)OC)c2c3cc(ccc31)-c1csc(n1)C[C@H](NC(=O)[C@H](C(C)C)N(C)C(=O)N1CCO[C@H](C)C1)C(=O)N1CCC[C@H](N1)C(=O)OCC(C)(C)C2 (atropisomer, axis not shown) [Compound A310] | < 10 | 10 to 100 |
| CCn1c(-c2cccnc2[C@H](C)OC)c2c3cc(ccc31)-c1csc(n1)C[C@H](NC(=O)[C@H](C(C)C)N(C)C(=O)N1CC(N3CCOCC3)C1)C(=O)N1CCC[C@H](N1)C(=O)OCC(C)(C)C2 (atropisomer, axis not shown) [Compound A338] | < 10 | – |
| CCn1c(-c2cccnc2[C@H](C)OC)c2c3cc(ccc31)-c1csc(n1)C[C@H](NC(=O)[C@H](C(C)C)N(C)C(=O)N1CC(O)C1)C(=O)N1CCC[C@H](N1)C(=O)OCC(C)(C)C2 (atropisomer, axis not shown) [Compound A358] | < 10 | 10 to 100 |
| CCn1c(-c2cccnc2[C@H](C)OC)c2c3cc(ccc31)-c1cc(O)cc(c1)C[C@H](NC(=O)[C@H](C(C)C)N(C)C(=O)[C@@H]1CCN(C(=O)OC)C1)C(=O)N1CCC[C@H](N1)C(=O)OCC(C)(C)C2 (atropisomer, axis not shown) [Compound A365] | < 10 | – |
| CCn1c(-c2cc(N3CCN(C)CC3)cnc2[C@H](C)OC)c2c3cc(ccc31)-c1csc(n1)C[C@H](NC(=O)[C@H](C(C)C)N(C)C(=O)[C@H]1CCCS1(=O)=O)C(=O)N1CCC[C@H](N1)C(=O)OCC(C)(C)C2 (atropisomer, axis not shown) [Compound A439] | < 10 | – |
| CCn1c(-c2cccnc2[C@H](C)OC)c2c3cc(ccc31)-c1csc(n1)C[C@H](NC(=O)[C@H](C(C)C)N(C)C(=O)N1CC3(CC(N4CC(F)C4)C3)C1)C(=O)N1CCC[C@H](N1)C(=O)OCC(C)(C)C2 (atropisomer, axis not shown) [Compound A457] | < 10 | 10 to 100 |
| CCn1c(-c2cc(N3CCN(C)CC3)cnc2[C@H](C)OC)c2c3cc(ccc31)-c1csc(n1)C[C@H](NC(=O)[C@H](C(C)C)N(C)C(=O)[C@@H]1OCC[C@@H]1c1cccnc1)C(=O)N1CCC[C@H](N1)C(=O)OCC(C)(C)C2 (atropisomer, axis not shown) [Compound A490] | < 10 | – |
| CCn1c(-c2cccnc2[C@H](C)OC)c2c3cc(ccc31)-c1csc(n1)C[C@H](NC(=O)[C@H](C(C)C)N(C)C(=O)N1CC([C@@H](CO)OC)C1)C(=O)N1CCC[C@H](N1)C(=O)OCC(C)(C)C2 (atropisomer, axis not shown) [Compound A514] | < 10 | 10 to 100 |
| CCn1c(-c2cccnc2[C@H](C)OC)c2c3cc(ccc31)-c1csc(n1)C[C@H](NC(=O)[C@H](C(C)C)N(C)C(=O)N1CCN(C(=O)C3CC3)CC1)C(=O)N1CCC[C@H](N1)C(=O)OCC(C)(C)C2 (atropisomer, axis not shown) [Compound A607] | < 10 | – |
| CCn1c(-c2cccnc2[C@H](C)OC)c2c3cc(ccc31)-c1csc(n1)C[C@H](NC(=O)[C@H](C(C)C)N(C)C(=O)N1CCN3CCOCC3C1)C(=O)N1CCC[C@H](N1)C(=O)OCC(C)(C)C2 (some centres unmarked) [Compound A296] | < 10 | – |
| CO[C@@H](C)c1ncccc1-c1c2c3cc(ccc3n1CC(F)(F)F)-c1csc(n1)C[C@H](NC(=O)[C@H](C(C)C)N(C)C(=O)N1CC(N(C)C)C1)C(=O)N1CCC[C@H](N1)C(=O)OCC(C)(C)C2 [Compound A303] | < 10 | – |
| CCn1c(-c2cccnc2[C@H](C)OC)c2c3cc(ccc31)-c1csc(n1)C[C@H](NC(=O)[C@H](C(C)C)N(C)C(=O)N1C3COCC1C3)C(=O)N1CCC[C@H](N1)C(=O)OCC(C)(C)C2 [Compound A540] | – | 10 to 100 |
